# Test results published in patent EP1063290A1, “NOVEL DICARBONYLREDUCTASE AND GENE ENCODING THE SAME” (TAISHO PHARMACEUTICAL CO., LTD, priority 1998, dated 1999).
# Where two headings read alike, the source gives them in different places.
# What was measured:
# protein DCR1 = protein DCR1 (Mus musculus, UniProt Q91X52); test: Dicarbonyl reductase activity assay: substrate specificity and rate constants (NAD(P)H oxidation at 340 nm); details: for activity (as substrate): Example 5, result in words
# protein DCR1, sequence (Q91X52 whole entry): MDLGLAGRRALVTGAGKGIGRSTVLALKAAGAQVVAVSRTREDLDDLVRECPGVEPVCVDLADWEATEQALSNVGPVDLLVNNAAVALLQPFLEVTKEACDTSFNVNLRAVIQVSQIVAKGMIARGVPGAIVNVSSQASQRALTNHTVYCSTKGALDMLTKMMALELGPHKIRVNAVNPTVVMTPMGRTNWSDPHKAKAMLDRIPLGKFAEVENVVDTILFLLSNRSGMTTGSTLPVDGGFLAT
# Protocol: (§1) The enzyme activity assay method is not particularly restricted, and it may be based on the activity assay method for mouse carbonyl reductase (CR) (Eur. J. Biochem. 22, 381-387(1995)). The enzyme used here was an expressed recombinant enzyme. • (a) Substrate specificity: In order to determine the substrate specificity, there may be used a hydrocarbon system including various ketone, aldehyde and ester groups, or an aromatic compound.
# • (1) This was assayed under the following conditions. The reaction mixture (total: 2.0 ml) comprised an 80 mM potassium phosphate solution (pH 7.0 or 6.0), 0.1 mM NADPH or NADH and a carbonyl substrate or enzyme (50 µl) (10.1 µg or 3.7 µg of glomerin B). The oxidation rate for NAD(P)H was measured at 340 nm.
# [1] = biological target: T1, hamster liver diacetyl reductase (Hamster DR) (Mesocricetus auratus, UniProt Q91XV4); test: Inhibition of the enzyme reaction; format: biochemical; details: read-out: Inhibition (%) Hamster DR
# T1 construct: from tissue; host or cells: hamster liver
# T1 sequence (Q91XV4 whole entry): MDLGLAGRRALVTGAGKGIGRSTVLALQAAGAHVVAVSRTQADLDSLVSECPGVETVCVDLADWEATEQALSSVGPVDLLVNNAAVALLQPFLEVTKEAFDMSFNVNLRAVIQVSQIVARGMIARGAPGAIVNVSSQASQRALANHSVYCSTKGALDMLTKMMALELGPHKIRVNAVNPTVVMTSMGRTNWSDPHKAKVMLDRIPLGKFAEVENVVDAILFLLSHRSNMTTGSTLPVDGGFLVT
# Description: (§2) Two enzymes were used here, mouse DCR1 and hamster liver diacetyl reductase (Hamster DR).
# mouse DCR1 = biological target: T2, mouse DCR1 (Mus musculus, UniProt Q91X52); test: Inhibition of the enzyme reaction; format: biochemical; details: read-out: Inhibition (%) CDR1
# T2 construct: made in house; host or cells: E. coli K12
# T2 sequence (Q91X52 whole entry): as the sequence (Q91X52 whole entry) above
# Description: as §2
# protein hDCR1 = protein hDCR1 (Homo sapiens, UniProt Q7Z4W1); test: Dicarbonyl reductase activity assay: substrate specificity (NAD(P)H oxidation at 340 nm); details: against a reference of 100 for diacetyl
# protein hDCR1, sequence (Q7Z4W1 whole entry): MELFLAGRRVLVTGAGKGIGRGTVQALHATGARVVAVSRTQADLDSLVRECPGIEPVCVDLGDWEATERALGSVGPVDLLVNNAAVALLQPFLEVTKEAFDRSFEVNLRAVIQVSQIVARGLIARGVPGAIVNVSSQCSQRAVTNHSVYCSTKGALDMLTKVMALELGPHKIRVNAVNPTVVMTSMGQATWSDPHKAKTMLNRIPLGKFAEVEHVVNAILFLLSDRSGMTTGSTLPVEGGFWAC
# Protocol: as §1
# The reaction mixture (total: 2.0 ml) comprised an 80 mM potassium phosphate solution (pH 7.0 or 6.0), 0.1 mM NADPH or NADH and a carbonyl substrate or enzyme (50 µl) (10.1 µg or 3.7 µg of hDCR1).
# The oxidation rate for NAD(P)H was measured at 340 nm.
# One unit of enzyme activity was defined as that which catalyzed oxidation of 1 µmol of NAD(P)H in one minute at 25°C.
# [2] = substrate concentration 100 μM, against a reference of 100 for diacetyl
# [3] = substrate concentration 1,000 μM, against a reference of 100 for diacetyl
# [4] = substrate concentration 500 μM, against a reference of 100 for diacetyl
# [5] = substrate concentration 5,000 μM, against a reference of 100 for diacetyl
# [6] = substrate concentration 1,000 μM
# [7] = substrate concentration 2,000 μM
# [8] = substrate concentration 20 μM, against a reference of 100 for diacetyl
# [9] = substrate concentration 5,000 μM
compound,measurement,setting,value
O=C(C(=O)c1ccccc1)c1ccccc1 [Benzil],RA (%) relative activity,protein DCR1; [2],0%
Nc1ccccc1C(=O)O [Anthranilic acid],inhibition at 100 µM,[1],42%
same,inhibition at 100 µM,mouse DCR1,0%
Phenyl-2-butanone,RA (%) relative activity,protein DCR1; [3],0.2%
C[C@]12CCC(=O)C[C@@H]1CC[C@@H]1[C@@H]2CC[C@]2(C)[C@@H](O)CC[C@@H]12 [5α-DHT],RA (%) relative activity,protein hDCR1; substrate concentration 50 μM,0%
COC(=O)CC(C)=O [Methyl acetoacetate],RA (%) relative activity,protein DCR1; [3],0.2%
COc1cccc2c1C(=O)c1c(O)c3c(c(O)c1C2=O)C[C@@](O)(C(C)=O)C[C@@H]3O[C@H]1C[C@H](N)[C@H](O)[C@H](C)O1 [Daunorubicin],RA (%) relative activity,protein hDCR1; substrate concentration 500 μM,0%
same,RA (%) relative activity,protein DCR1; [4],1.1%
CCCCC[C@H](O)/C=C/[C@H]1[C@H](O)CC(=O)[C@@H]1C/C=C\CCCC(=O)O [PGE2],RA (%) relative activity,protein DCR1; [3],0.0%
O=C1C=CCCC1 [2-Cyclohexen-1-one],RA (%) relative activity,protein DCR1; [3],1.3%
O=C[C@H](O)[C@@H](O)[C@H](O)[C@H](O)CO [D-Glucose],RA (%) relative activity,"protein DCR1; substrate concentration 200,000 μM, against a reference of 100 for diacetyl",0%
C[C@]12CCC(=O)C[C@H]1CC[C@@H]1[C@@H]2C(=O)C[C@@]2(C)[C@H]1CC[C@]2(O)C(=O)CO [5β-dihydrocortisone],RA (%) relative activity,protein hDCR1; substrate concentration 20 μM,0%
O=C(O)CC1(CC(=O)O)CCCC1 [Tetramethyleneglutaric acid],inhibition at 100 µM,[1],63%
same,inhibition at 100 µM,mouse DCR1,0%
O[C@H]1CCc2ccccc21 [S-indan-1-ol],activity (as substrate),protein DCR1,no activity
C[C@]12CC[C@@H](O)C[C@H]1CC[C@@H]1[C@@H]2[C@@H](O)C[C@]2(C)[C@@H](C(=O)CO)CC[C@@H]12 [Tetrahydrocorticosterone],RA (%) relative activity,protein DCR1,0.0%
O=C1NC(=O)C(c2ccccc2)(c2ccccc2)N1 [Diphenlhydantoin],inhibition at 100 µM,[1],2%
same,inhibition at 100 µM,mouse DCR1,17%
CC(=O)C(=O)O [Pyruvic acid],RA (%) relative activity,protein DCR1; [5],0%
CC(C)CN [Isobutylamine],inhibition at 1000 µM,[1]; compound concentration 1 mM,50%
same,inhibition at 1000 µM,mouse DCR1; compound concentration 1 mM,16%
O=Cc1cccnc1 [Pyridine-3-aldehyde],RA (%) relative activity,protein hDCR1; [6],27%
same,RA (%) relative activity,protein DCR1; [3],4%
"C[C@]12CCC(=O)C[C@@H]1CC[C@@H]1[C@@H]2CC[C@]2(C)C(=O)CC[C@@H]12 [5α-Androstane-3,17-dione]",RA (%) relative activity,protein hDCR1; substrate concentration 50 μM,0%
same,RA (%) relative activity,protein DCR1,0.0%
O=CC(=O)c1ccccc1 [Phenylglyoxal],RA (%) relative activity,protein hDCR1; [6],35%
same,RA (%) relative activity,protein DCR1; [3],3.9%
O=CC(=O)C[C@H](O)[C@H](O)CO [3-Deoxyglucosone],RA (%) relative activity,protein hDCR1; [7],5%
same,RA (%) relative activity,"protein DCR1; substrate concentration 2,000 μM, against a reference of 100 for diacetyl",0.4%
CC(=O)c1ccc([N+](=O)[O-])cc1 [4-Nitroacetophenone],RA (%) relative activity,protein hDCR1; [6],0%
same,activity (as substrate),protein DCR1,no activity
same,RA (%) relative activity,protein DCR1; [3],0%
"CC(=O)CC(C)=O [2,4-Pentanedione]",RA (%) relative activity,protein hDCR1; [6],0%
same,RA (%) relative activity,protein DCR1; [3],0%
"O=C1C=Cc2ccccc2C1=O [1,2-Naphtoquinone]",RA (%) relative activity,protein DCR1; [8],47%
O=Cc1ccccc1[N+](=O)[O-] [2-Nitrobenzaldehyde],RA (%) relative activity,protein hDCR1; [6],99%
same,RA (%) relative activity,"protein DCR1; substrate concentration 1,500 μM, against a reference of 100 for diacetyl",3.9%
CCC=O [1-Propanal],RA (%) relative activity,protein DCR1; [5],0.5%
CCC(C)=O [2-Butanone],RA (%) relative activity,protein DCR1,0%
"O=C1CCCCC1=O [1,2-Cyclohexanedione]",RA (%) relative activity,protein hDCR1; [6],27%
same,RA (%) relative activity,protein DCR1; [3],10.9%
OC1C=CCCC1 (stereo not shown) [2-cyclohexen-1-ol],activity (as substrate),protein DCR1,no activity
O=C1O[C@H]([C@@H](O)CO)C(=O)C1=O [Dehydroascorbic acid],RA (%) relative activity,protein DCR1; [4],0%
CCOC(=O)CC(C)=O [Ethyl acetoacetate],RA (%) relative activity,protein DCR1; [3],0%
O=C[C@H](O)[C@@H](O)[C@H](O)[C@H](O)C(=O)O [D-Glucuronate],RA (%) relative activity,protein DCR1; [3],0%
O=Cc1ccc([N+](=O)[O-])cc1 [4-Nitrobenzaldehyde],RA (%) relative activity,protein hDCR1; [6],69%
same,RA (%) relative activity,protein DCR1; [3],3.3%
O=C(O)c1ccccc1 [Benzoic acid],inhibition at 100 µM,[1],59%
same,inhibition at 100 µM,mouse DCR1,32%
O=CCO [Glycolaldehyde],RA (%) relative activity,protein DCR1; [5],0.9%
C[C@]12CCC(=O)C=C1CC[C@@H]1[C@@H]2[C@@H](O)C[C@@]2(C)[C@H]1CC[C@]2(O)C(=O)C=O [Cortisol-21-al],RA (%) relative activity,protein DCR1; [8],0.0%
O=CC=O [Glyoxal],RA (%) relative activity,protein DCR1; [5],0%
CC(=O)C(C)O (stereo not shown) [Acetoin],RA (%) relative activity,protein hDCR1; [9],13%
same,RA (%) relative activity,protein DCR1; [5],7.4%
O=CC(O)CO (racemic) [DL-Glyceraldehyde],RA (%) relative activity,protein hDCR1; [9],25%
same,RA (%) relative activity,protein DCR1; [3],10.4%
same,RA (%) relative activity,protein DCR1; [5],40%
CCC1(CC)C(=O)NC(=O)NC1=O [Barbital],inhibition at 1000 µM,[1],5%
same,inhibition at 1000 µM,mouse DCR1,0%
c1cnc2c(c1)ccc1cccnc12 [o-Phenanthroline],inhibition at 1000 µM,[1],0%
same,inhibition at 1000 µM,mouse DCR1,8%
O=C(O)C(=O)Cc1ccccc1 [Phenylpyruvic acid],RA (%) relative activity,protein DCR1; [3],0.5%
O=C(O)C(=O)[C@@H](O)[C@H](O)[C@@H](O)CO [2-Ketogulonate],RA (%) relative activity,protein DCR1; [3],0%
O=C(O)CCC(=O)C(=O)O [α-Ketoglutaric acid],RA (%) relative activity,protein DCR1; [3],0%
"CC(=O)CCC(C)=O [2,5-Hexanedione]",RA (%) relative activity,protein DCR1; [3],0%
C[C@]12C[C@H](O)[C@H]3[C@@H](CCC4=CC(=O)CC[C@@]43C)[C@@H]1CC[C@@H]2C(=O)C=O [Corticosterone-21-al],RA (%) relative activity,protein DCR1; [8],0.0%
Indolecarboaldehyde,RA (%) relative activity,protein DCR1; [3],0%
CCC(=O)c1ccccc1 [Propiophenone],RA (%) relative activity,protein DCR1; [3],0%
"C[C@]12CCC(=O)C[C@H]1CC[C@@H]1[C@@H]2CC[C@]2(C)C(=O)CC[C@@H]12 [5β-Androstane-3,17-dione]",RA (%) relative activity,protein DCR1,0.0%
C=CCN1CC[C@]23c4c5ccc(O)c4O[C@H]2C(=O)CC[C@@]3(O)[C@H]1C5 [Naloxone],RA (%) relative activity,protein DCR1; [3],0%
CC(=O)CO [Acetol],RA (%) relative activity,protein DCR1; [3],0.8%
COC(=O)CCC(=O)C(=O)OC [Dimethyl-2-oxoglutarate],RA (%) relative activity,protein hDCR1; [7],63%
C[C@]12C[C@H](O)[C@H]3[C@@H](CCC4=CC(=O)CC[C@@]43C)[C@@H]1CC[C@@H]2C(=O)CO [Corticosterone],RA (%) relative activity,protein hDCR1; substrate concentration 50 μM,0%
"O=C1c2ccccc2C(=O)C1c1ccccc1 [1-Phenyl-1,3-indanedione]",RA (%) relative activity,"protein DCR1; substrate concentration 400 μM, against a reference of 100 for diacetyl",0.6%
CC(=O)c1ccc(S(=O)(=O)NC(=O)NC2CCCCC2)cc1 [Acetohexamide],RA (%) relative activity,protein DCR1; [3],0%
O=Cc1ccncc1 [Pyridine-4-aldehyde],RA (%) relative activity,protein hDCR1; [6],27%
same,RA (%) relative activity,protein DCR1; [5],13.7%
CCCCCCCCC=O [1-Nonanal],RA (%) relative activity,"protein DCR1; substrate concentration 50 μM, against a reference of 100 for diacetyl",0.005%
CC12CCC(C(=O)C1=O)C2(C)C (stereo not shown) [Camphorquinone],RA (%) relative activity,protein hDCR1; substrate concentration 500 μM,23%
same,RA (%) relative activity,protein DCR1; [4],6%
CCOC(=O)C(C)=O [Pyruvic acid ethyl ester],RA (%) relative activity,protein hDCR1; [6],33%
same,RA (%) relative activity,protein DCR1; [3],35.2%
COC(=O)C(C)=O [Pyruvic acid methyl ester],RA (%) relative activity,protein hDCR1; [6],46%
same,RA (%) relative activity,protein DCR1; [3],23.3%
CC=O [Acetaldehyde],RA (%) relative activity,protein DCR1; [5],1.8%
"CC(=O)[C@H]1CC[C@H]2[C@@H]3CC[C@@H]4CC(=O)CC[C@]4(C)[C@H]3CC[C@]12C [5β-Pregnane-3,20-dione]",RA (%) relative activity,protein DCR1; [8],0.0%
C[C@@H](O)C=O [D-Lactoaldehyde],RA (%) relative activity,protein DCR1; [3],0.6%
O=C(c1ccccc1)c1ccncc1 [4-Benzoylpyridine],RA (%) relative activity,protein hDCR1; [6],39%
same,RA (%) relative activity,protein DCR1; [3],7%
CC(=O)[C@@]1(O)CC[C@H]2[C@@H]3CCC4=CC(=O)CC[C@]4(C)[C@H]3CC[C@@]21C [17α-hydroxyprogesterone],RA (%) relative activity,protein hDCR1; substrate concentration 50 μM,0%
same,RA (%) relative activity,protein DCR1; [8],0.0%
"O=C1CCC(=O)CC1 [1,4-Cyclohexanedione]",RA (%) relative activity,protein DCR1; [3],0%
CC(=O)C=O [Methylglyoxal],RA (%) relative activity,protein hDCR1; [9],20%
same,RA (%) relative activity,protein DCR1; [3],2.3%
same,RA (%) relative activity,protein DCR1; [5],7.9%
CC(=O)C=Cc1ccccc1 [Benzalacetone],RA (%) relative activity,protein DCR1; [4],0%
O=Cc1cccc([N+](=O)[O-])c1 [3-Nitrobenzaldehyde],RA (%) relative activity,"protein DCR1; substrate concentration 3,000 μM, against a reference of 100 for diacetyl",3.3%
"CC1=CC(=O)c2ccccc2C1=O [Menadione (Vitamin K3), Menadione]",RA (%) relative activity,protein hDCR1; substrate concentration 100 μM,0%
same,activity (as substrate),protein DCR1,no activity
same,RA (%) relative activity,protein DCR1; [2],0.1%
